According to paper PMC6099558, “N-oxide alkaloids from Crinum amabile (Amaryllidaceae)” (Molecules : A Journal of Synthetic Chemistry and Natural …, 2018):
In brackets after ≈: the same amount, converted by molar mass. Read-outs that look alike come from different tables or passages of the source.

Tests used:
[1] = Cytotoxicity test against mammalian L6 cell line; format: cell-based; conditions: L6 cells (rat skeletal myoblasts)
Description: (§1) In vitro tests for the biological activity of the alkaloids isolated from C. amabile against Trypanosoma brucei rhodesiense (trypomastigotes forms, STIB 900 strain), Trypanosoma cruzi (axenic grown amastigotes forms, Tulahuen C4 strain), Leishmania donovani (amastigotes forms, MHOM-ET-67/L82 strain), and Plasmodium falciparum (intraerythrocytic forms, IEF, NF54 strain) and a cytotoxicity test against the mammalian L6 cell line from rat skeletal myoblasts were carried out at the Swiss Tropical and Public Health Institute (Swiss TPH, Basel, Switzerland) according to established protocols as described by Orhan and co-workers. The reference drugs used in these assays were melarsoprol, benznidazole, miltefosine, chloroquine and podophyllotoxin, respectively.

[2] = test system: Trypanosoma cruzi (axenic grown amastigotes forms, Tulahuen C4 strain); experiment: In vitro antiprotozoal activity against T. cruzi; format: cell-based; conditions: read-out: T. cruzi IC50
Description: as §1

[3] = test system: Plasmodium falciparum (intraerythrocytic forms, IEF, NF54 strain); experiment: In vitro antiprotozoal activity against P. falciparum NF54; format: cell-based
Description: as §1

[4] = test system: Trypanosoma brucei rhodesiense (trypomastigotes forms, STIB 900 strain); experiment: In vitro antiprotozoal activity against T. brucei rhodesiense; format: cell-based; conditions: read-out: T. brucei rhodesiense IC50
Description: as §1

[5] = test system: Leishmania donovani (amastigotes forms, MHOM-ET-67/L82 strain); experiment: In vitro antiprotozoal activity against L. donovani; format: cell-based; conditions: read-out: L. donovani IC50
Description: as §1

[6] = test system: chloroquine-sensitive strain of Plasmodium falciparum; parameters: method as in PMID 8229016; conditions: read-out: IC50 against chloroquine-sensitive strain of Plasmodium falciparum; cited from earlier work
[7] = biological target: AChE (Electrophorus electricus, UniProt O42275); experiment: Acetylcholinesterase inhibitory activity (Ellman method, modified); format: biochemical
Description: (§2) Cholinesterase inhibitory activities were analyzed as by Ellman and co-workers with some modifications as by López and co-workers. Fifty microliters of AChE or BuChE phosphate buffer (8m M K2HPO4, 2.3 mM NaH2PO4, 0.15 M NaCl, pH 7.5) and 50 μL of the sample dissolved in the same buffer were added to the wells. The plates were incubated for 30 min at room temperature before 100 μL of the substrate solution (0.1 M Na2HPO4, […], and 0.6 mM acetylthiocholine iodide, ATCI, or 0.24 mM butyrylthiocholine iodide, BTCI, in Millipore water, pH 7.5) was added. The absorbance was read in a Labsystem microplate reader (Helsinki, Finland) at 405 nm after 10 min. […] In a first step, samples were assessed at 10, 100 and 200 µg mL^−1 towards both enzymes. […] Enzyme activity was calculated as a percentage compared to an assay using a buffer without any inhibitor. The cholinesterase inhibitory data were analyzed with the software Microsoft Office Excel 2010.

[8] = test system: chloroquine-resistant strain of Plasmodium falciparum; conditions: read-out: IC50 against chloroquine-resistant strain of Plasmodium falciparum; cited from earlier work
[9] = biological target: BuChE (Equus caballus, UniProt P81908); experiment: Butyrylcholinesterase inhibitory activity (Ellman method, modified); format: biochemical
Description: as §2

[10] = amastigotes forms, Tulahuen C4 strain
[11] = intraerythrocytic forms, NF54 strain, read-out: P. falciparum IC50
[12] = trypomastigotes forms, STIB 900 strain
[13] = amastigotes forms, MHOM-ET-67/L82 strain

Sequence of AChE (O42275 24-633): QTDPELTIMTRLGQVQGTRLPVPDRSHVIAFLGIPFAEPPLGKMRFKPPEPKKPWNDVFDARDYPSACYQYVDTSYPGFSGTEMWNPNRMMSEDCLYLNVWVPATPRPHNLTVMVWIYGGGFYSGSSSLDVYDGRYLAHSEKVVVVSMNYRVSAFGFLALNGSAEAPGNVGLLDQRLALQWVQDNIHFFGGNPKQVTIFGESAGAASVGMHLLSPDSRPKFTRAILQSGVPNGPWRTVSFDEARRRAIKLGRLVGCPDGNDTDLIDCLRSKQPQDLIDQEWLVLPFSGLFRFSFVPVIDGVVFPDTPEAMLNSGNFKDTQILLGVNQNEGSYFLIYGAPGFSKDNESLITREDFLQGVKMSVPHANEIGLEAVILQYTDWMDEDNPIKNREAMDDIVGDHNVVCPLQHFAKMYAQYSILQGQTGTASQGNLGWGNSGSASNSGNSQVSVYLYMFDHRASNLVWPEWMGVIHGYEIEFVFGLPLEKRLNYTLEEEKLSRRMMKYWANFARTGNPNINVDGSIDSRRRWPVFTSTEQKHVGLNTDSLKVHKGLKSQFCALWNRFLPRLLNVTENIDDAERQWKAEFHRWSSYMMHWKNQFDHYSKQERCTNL
Sequence of BuChE (P81908 whole entry): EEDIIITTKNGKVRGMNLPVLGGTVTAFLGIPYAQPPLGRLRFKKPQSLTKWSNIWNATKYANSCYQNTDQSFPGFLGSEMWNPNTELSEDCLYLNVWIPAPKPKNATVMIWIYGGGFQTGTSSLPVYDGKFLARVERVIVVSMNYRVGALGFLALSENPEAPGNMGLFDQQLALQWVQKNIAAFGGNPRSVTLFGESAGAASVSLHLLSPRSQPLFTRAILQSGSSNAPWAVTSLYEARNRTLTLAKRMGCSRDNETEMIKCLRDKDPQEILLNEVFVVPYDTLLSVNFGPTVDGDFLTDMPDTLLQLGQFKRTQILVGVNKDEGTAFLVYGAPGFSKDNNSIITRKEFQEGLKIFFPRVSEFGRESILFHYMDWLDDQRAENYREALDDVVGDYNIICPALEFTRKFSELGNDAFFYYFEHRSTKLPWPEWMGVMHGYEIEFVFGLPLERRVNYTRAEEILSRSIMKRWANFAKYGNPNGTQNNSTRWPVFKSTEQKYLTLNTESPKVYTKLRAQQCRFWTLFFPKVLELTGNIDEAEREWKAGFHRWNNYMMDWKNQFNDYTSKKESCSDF

SMILES | IC50 [1] | IC50 [2, 10] | IC50 [3, 11] | IC50 [4, 12] | IC50 [5, 13] | further results
COc1cc([C@@H]2c3cc4c(cc3[C@H](O)[C@H]3COC(=O)[C@H]23)OCO4)cc(OC)c1OC [podophyllotoxin, reference compound] | 0.004 ± 0.0007 µg/mL (≈ 0.00965 µM) |  |  |  |  | 
CO[C@@H]1C[C@@H]2[C@@]3(CC[N@@+]2([O-])Cc2cc4c(cc23)OCO4)[C@H]2O[C@@H]12 [Augustine N-oxide (1), Augustine N-oxide] | > 100 µg/mL | 66.2 ± 11.8 µg/mL (≈ 209 µM) | 36.6 ± 4.74 µg/mL (≈ 115 µM) | 58.9 ± 11.5 µg/mL (≈ 185 µM) | > 100 µg/mL | 
CCCCCCCCCCCCCCCCOP(=O)([O-])OCC[N+](C)(C)C [miltefosine, reference compound] |  |  |  |  |  | IC50 [5]: 0.515 ± 0.06 µg/mL (≈ 1.26 µM)
CO[C@@H]1C[C@H]2N3CC[C@@]2(c2cc4c(cc2C3)OCO4)[C@H]2O[C@@H]12 [Augustine (13), Augustine] | > 100 µg/mL | 56 ± 0.71 µg/mL (≈ 186 µM) | 14.2 ± 0.14 µg/mL (≈ 47.1 µM) | 15.1 ± 1.06 µg/mL (≈ 49.9 µM) | > 100 µg/mL | IC50 [6]: 460 nM; AChE inhibitory activity (in words) [7]: moderate; IC50 [8]: 600 nM
O=C(Cn1ccnc1[N+](=O)[O-])NCc1ccccc1 [benznidazole, reference compound] |  |  |  |  |  | IC50 ([2]; TULAHUEN): 0.865 ± 0.08 µg/mL (≈ 3.32 µM)
O[C@H]1C=C[C@@]23CCN(Cc4cc5c(cc42)OCO5)[C@@H]3C1 [Crinine (10), Crinine] | > 100 µg/mL | 57.5 ± 6.86 µg/mL (≈ 212 µM) | 30.9 ± 2.19 µg/mL (≈ 114 µM) | 18.9 ± 0.78 µg/mL (≈ 69.8 µM) | > 100 µg/mL | 
CO[C@H]1C=C[C@@]23CC[N@@+]([O-])(Cc4cc5c(cc42)OCO5)[C@@H]3C1 [Buphanisine N-oxide (2), Buphanisine N-oxide] | > 100 µg/mL | 64 ± 1.34 µg/mL (≈ 213 µM) | 32.55 ± 0.07 µg/mL (≈ 108 µM) | 55.2 ± 4.31 µg/mL (≈ 183 µM) | > 100 µg/mL | 
CN1CCC23c4cc5c(cc4C4OC(CCC12)C3O4)OCO5 (centres unmarked) [Augustamine (22), Augustamine] | 81.55 ± 0.64 µg/mL (≈ 271 µM) | 54 ± 4.53 µg/mL (≈ 179 µM) | 20.4 ± 0.21 µg/mL (≈ 67.5 µM) | 19.2 ± 2.97 µg/mL (≈ 63.7 µM) | > 100 µg/mL | AChE inhibitory activity (in words) [7]: did not show any cholinesterase inhibitory activities; BuChE inhibitory activity (in words) [9]: did not show any cholinesterase inhibitory activities
Nc1nc(N)nc(Nc2ccc([As]3SCC(CO)S3)cc2)n1 (centres unmarked) [melarsoprol, reference compound] |  |  |  |  |  | IC50 [4]: 0.003 ± 0.001 µg/mL
CO[C@H]1C=C[C@@]23CCN(Cc4cc5c(cc42)OCO5)[C@@H]3C1 [Buphanisine (8), Buphanisine] | 72.8 ± 5.02 µg/mL (≈ 255 µM) | 55.5 ± 4.6 µg/mL (≈ 195 µM) | 4.28 ± 0.18 µg/mL (≈ 15 µM) | 16.5 ± 0.57 µg/mL (≈ 57.8 µM) | > 100 µg/mL | AChE inhibitory activity (in words) [7]: low
CCN(CC)CCCC(C)Nc1ccnc2cc(Cl)ccc12 (centres unmarked) [chloroquine, reference compound] |  |  |  |  |  | IC50 ([3]; NF54, read-out: P. falciparum IC50): 0.004 ± 0.0007 µg/mL (≈ 0.0125 µM)
